Data reported in PubChem BioAssay AID2060892 (Molecular Pharmacology Branch, DTP, NCI, 2025).

System: HOP-62 complex spheroids with HUVEC/MSC, viability
Assay: Anticancer human tumor HOP-62 cell line growth inhibition [RAS];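 note: spheroids exposed to agents for seven days before readout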;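 for viability, T/C: 100% = DMSO vehicle control viability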
Conditions: for IC50: curve of first compound; for viability, T/C: stronger effect = lower value
Method in brief: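 Agents were tested in combination matrices in half-log decrements from a top concentration at or near clinical Cmax (10 microM if undetermined). Targets were multi-cell spheroids of tumour lines plus HUVEC and MSC stromal cells.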

[1] = second compound 0.00316 µM, first compound 0.0316 µM
[2] = second compound 0.00316 µM, first compound 0.1 µM
[3] = second compound 0.00316 µM, first compound 0.316 µM
[4] = second compound 0.00316 µM, first compound 1 µM
[5] = second compound 0.01 µM, first compound 0.0316 µM
[6] = second compound 0.01 µM, first compound 0.1 µM
[7] = second compound 0.01 µM, first compound 0.316 µM
[8] = second compound 0.01 µM, first compound 1 µM
[9] = second compound 0.0316 µM, first compound 0.0316 µM
[10] = second compound 0.0316 µM, first compound 0.1 µM
[11] = second compound 0.0316 µM, first compound 0.316 µM
[12] = second compound 0.0316 µM, first compound 1 µM
[13] = second compound 0.1 µM, first compound 0.0316 µM
[14] = second compound 0.1 µM, first compound 0.1 µM
[15] = second compound 0.1 µM, first compound 0.316 µM
[16] = second compound 0.1 µM, first compound 1 µM
[17] = second compound 0.316 µM, first compound 0.0316 µM
[18] = second compound 0.316 µM, first compound 0.1 µM
[19] = second compound 0.316 µM, first compound 0.316 µM
[20] = second compound 0.316 µM, first compound 1 µM
[21] = second compound 1 µM, first compound 0.0316 µM
[22] = second compound 1 µM, first compound 0.1 µM
[23] = second compound 1 µM, first compound 0.316 µM
[24] = second compound 1 µM, first compound 1 µM

Structure (SMILES): C=CC(=O)Nc1cc(Nc2nccc(-c3cn(C)c4ccccc34)n2)c(OC)cc1N(C)CCN(C)C + C=CC(=O)N1CCN(c2nc(OCC3CCCN3C)nc3c(F)c(-c4nc(N)cc(C)c4C(F)(F)F)c(Cl)cc23)C(C)C1
- IC50 (second compound 0.00316 µM): 628 nM
- IC50 (second compound 0.01 µM): 372 nM
- IC50 (second compound 0.0316 µM): 131 nM
- IC50 (second compound 0.1 µM): 280 nM
- IC50 (second compound 0.316 µM): 308 nM
- IC50 (second compound 1 µM): 333 nM
- viability, T/C (second compound 0.00316 µM, first compound 0.00316 µM): 82.4%
- viability, T/C (second compound 0.00316 µM, first compound 0.01 µM): 74.9%
- viability, T/C [1]: 72.5%
- viability, T/C [2]: 74.1%
- viability, T/C [3]: 64.1%
- viability, T/C [4]: 40.5%
- viability, T/C (second compound 0.01 µM, first compound 0.00316 µM): 74%
- viability, T/C (second compound 0.01 µM, first compound 0.01 µM): 66.6%
- viability, T/C [5]: 65.7%
- viability, T/C [6]: 66.4%
- viability, T/C [7]: 52.9%
- viability, T/C [8]: 29.4%
- viability, T/C (second compound 0.0316 µM, first compound 0.00316 µM): 74.9%
- viability, T/C (second compound 0.0316 µM, first compound 0.01 µM): 69.9%
- viability, T/C [9]: 52.6%
- viability, T/C [10]: 51.5%
- viability, T/C [11]: 51.3%
- viability, T/C [12]: 35.2%
- viability, T/C (second compound 0.1 µM, first compound 0.00316 µM): 65.7%
- viability, T/C (second compound 0.1 µM, first compound 0.01 µM): 66.1%
- viability, T/C [13]: 62.7%
- viability, T/C [14]: 56.4%
- viability, T/C [15]: 50.9%
- viability, T/C [16]: 29.4%
- viability, T/C (second compound 0.316 µM, first compound 0.00316 µM): 59.2%
- viability, T/C (second compound 0.316 µM, first compound 0.01 µM): 58.1%
- viability, T/C [17]: 59.2%
- viability, T/C [18]: 57.9%
- viability, T/C [19]: 48.5%
- viability, T/C [20]: 33.8%
- viability, T/C (second compound 1 µM, first compound 0.00316 µM): 63.9%
- viability, T/C (second compound 1 µM, first compound 0.01 µM): 53.5%
- viability, T/C [21]: 68.9%
- viability, T/C [22]: 56.9%
- viability, T/C [23]: 49.8%
- viability, T/C [24]: 34.1%

Structure (SMILES): CC(C)NCC(C(=O)N1CCN(c2ncnc3c2C(C)CC3O)CC1)c1ccc(Cl)cc1 (centres undefined) + C=CC(=O)N1CCN(c2nc(OCC3CCCN3C)nc3c(F)c(-c4nc(N)cc(C)c4C(F)(F)F)c(Cl)cc23)C(C)C1
- IC50 (second compound 0.00316 µM): 1050 nM
- IC50 (second compound 0.01 µM): 710 nM
- IC50 (second compound 0.0316 µM): 464 nM
- IC50 (second compound 0.1 µM): 450 nM
- IC50 (second compound 0.316 µM): 554 nM
- IC50 (second compound 1 µM): 300 nM
- viability, T/C [1]: 84.3%
- viability, T/C [2]: 78.1%
- viability, T/C [3]: 63.4%
- viability, T/C [4]: 53.4%
- viability, T/C (second compound 0.00316 µM, first compound 3.16 µM): 31%
- viability, T/C (second compound 0.00316 µM, first compound 10 µM): 12.8%
- viability, T/C [5]: 71.7%
- viability, T/C [6]: 67.5%
- viability, T/C [7]: 60.2%
- viability, T/C [8]: 46.3%
- viability, T/C (second compound 0.01 µM, first compound 3.16 µM): 27.1%
- viability, T/C (second compound 0.01 µM, first compound 10 µM): 15.3%
- viability, T/C [9]: 74.9%
- viability, T/C [10]: 60.5%
- viability, T/C [11]: 53.7%
- viability, T/C [12]: 39.2%
- viability, T/C (second compound 0.0316 µM, first compound 3.16 µM): 39%
- viability, T/C (second compound 0.0316 µM, first compound 10 µM): 12%
- viability, T/C [13]: 70%
- viability, T/C [14]: 57.8%
- viability, T/C [15]: 60.7%
- viability, T/C [16]: 34.6%
- viability, T/C (second compound 0.1 µM, first compound 3.16 µM): 25.4%
- viability, T/C (second compound 0.1 µM, first compound 10 µM): 13.6%
- viability, T/C [17]: 61.7%
- viability, T/C [18]: 81.3%
- viability, T/C [19]: 55.5%
- viability, T/C [20]: 39.4%
- viability, T/C (second compound 0.316 µM, first compound 3.16 µM): 23.5%
- viability, T/C (second compound 0.316 µM, first compound 10 µM): 12.6%
- viability, T/C [21]: 69.8%
- viability, T/C [22]: 57.1%
- viability, T/C [23]: 50.2%
- viability, T/C [24]: 39.4%
- viability, T/C (second compound 1 µM, first compound 3.16 µM): 23.9%
- viability, T/C (second compound 1 µM, first compound 10 µM): 11.4%
